For assay [1], the target named is T1, purified human Factor XIa (Homo sapiens, UniProt P03951).
T1 construct: purified human Factor XIa; purchased Sekisui Diagnostics
Nature of the assay: Factor XIa Assay. Format: biochemical. Particulars: purified human Factor XIa 40 pM; substrate Z-Gly-Pro-Arg-AFC 100 μM; 50 mM HEPES pH 7.4; read-out: Hu FXIa Ki. The procedure: The effectiveness of a compound of the present invention as an inhibitor of Coagulation Factor XIa can be determined using a relevant purified serine protease, and an appropriate synthetic substrate. The rate of hydrolysis of the chromogenic or fluorogenic substrate by the relevant serine protease was measured both in the absence and presence of compounds of the present invention. Assays were conducted at room temperature or at 37° C. […] A decrease in the rate of fluorescence change in the presence of inhibitor is indicative of enzyme inhibition. Such methods are known to one skilled in the art. The results of this assay are expressed as the inhibitory constant, Ki.
Factor XIa determinations were made in 50 mM HEPES buffer at pH 7.4 containing 150 mM NaCl, 5 mM CaCl2, and 0.1% PEG 8000 (polyethylene glycol; JT Baker or Fisher Scientific). Determinations were made using purified human Factor XIa at a final concentration of 40 pM (Sekisui Diagnostics) and he synthetic substrate, Z-Gly-Pro-Arg-AFC, TFA salt (Sigma #C0980) at a concentration of 100 μM.
Activity assays were performed by diluting a stock solution of substrate at least tenfold to a final concentration ≤0.1 Km into a solution containing enzyme or enzyme equilibrated with inhibitor. Times required to achieve equilibration between enzyme and inhibitor were determined in control experiments. Initial velocities of product formation in the absence (Vo) or presence of inhibitor (Vi) were measured. Assuming competitive inhibition, and that unity is negligible compared Km/[S], [I]/e, and [I]/e (where [S], [I], and e respectively represent the total concentrations, of substrate, inhibitor and enzyme), the equilibrium constant (Ki) for dissociation of the inhibitor from the enzyme can be obtained from the dependence of Vo/Vi on [I] shown in the following equation. Vo/Vi=1+[I]/Ki
The activities shown by this assay indicate that the compounds of the invention may be therapeutically useful for treating or preventing various cardiovascular and/or cerebrovascular thromboembolic conditions in patients suffering from unstable angina, acute coronary syndrome, refractory angina, myocardial infarction, transient ischemic attacks, atrial fibrillation, stroke such as thrombotic stroke or embolic stroke, venous thrombosis, coronary and cerebral arterial thrombosis, cerebral and pulmonary embolism, atherosclerosis, deep vein thrombosis, disseminated intravascular coagulation, and reocclusion or restenosis of recanalized vessels. The Ki values measured for each of the example compounds of the invention using this assay are reported in the tables above (as “Hu FXIa Ki (nM)”).

The target in assay [2] is T2, purified Human plasma kallikrein (Homo sapiens, UniProt P03952).
T2 construct: yields a heavy chain (371 amino acids) and a light chain (248 amino acids); purchased Enzyme Research Laboratories
T2 sequence (P03952 391-638 limits assumed): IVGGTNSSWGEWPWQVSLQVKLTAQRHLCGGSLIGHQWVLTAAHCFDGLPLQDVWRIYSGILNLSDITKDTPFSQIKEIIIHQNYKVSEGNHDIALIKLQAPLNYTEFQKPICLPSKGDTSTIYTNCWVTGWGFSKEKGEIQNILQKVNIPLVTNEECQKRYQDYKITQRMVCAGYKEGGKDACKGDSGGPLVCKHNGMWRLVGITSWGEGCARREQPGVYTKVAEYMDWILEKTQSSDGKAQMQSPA
T2 sequence (P03952 20-390 partner limits assumed): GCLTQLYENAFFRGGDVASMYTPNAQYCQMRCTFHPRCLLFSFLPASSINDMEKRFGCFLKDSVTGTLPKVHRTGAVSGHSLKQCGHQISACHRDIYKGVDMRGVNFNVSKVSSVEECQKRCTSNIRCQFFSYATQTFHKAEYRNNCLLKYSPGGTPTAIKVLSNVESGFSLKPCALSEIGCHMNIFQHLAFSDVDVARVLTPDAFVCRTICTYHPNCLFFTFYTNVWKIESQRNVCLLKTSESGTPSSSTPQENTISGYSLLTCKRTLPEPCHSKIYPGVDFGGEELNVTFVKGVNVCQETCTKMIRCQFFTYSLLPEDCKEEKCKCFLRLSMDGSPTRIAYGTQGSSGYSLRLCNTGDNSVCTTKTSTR
Nature of the assay: Kallikrein Assay. Particulars: purified Human plasma kallikrein 0.5 nM; substrate Acetyl-K-P-R-AFC; 50 mM HEPES pH 7.4; Ki from IC50 by Cheng Prusoff equation; read-out: Hu P. Kallikrein. It is filed as biochemical. The procedure:
The effectiveness of a compound of the present invention as an inhibitor of Kallikrein can be determined using a relevant purified serine protease, and an appropriate synthetic substrate. The rate of hydrolysis of the chromogenic or fluorogenic substrate by the relevant serine protease was measured both in the absence and presence of compounds of the present invention. Assays were conducted at room temperature or at 37° C. […] A decrease in the rate of fluorescence change in the presence of inhibitor is indicative of enzyme inhibition. Such methods are known to one skilled in the art. The results of this assay are expressed as the inhibitory constant, Ki. Kallikrein determinations were made in 50 mM HEPES buffer at pH 7.4 containing 150 mM NaCl, 5 mM CaCl2, and 0.1% PEG 8000 (polyethylene glycol; Fisher Scientific). Determinations were made using purified Human plasma kallikrein at a final concentration of 0.5 nM (Enzyme Research Laboratories) and the synthetic substrate, Acetyl-K—P-R-AFC (Sigma # C6608) at a concentration of […]. Activity assays were performed by diluting a stock solution of substrate at least tenfold to a final concentration ≤0.2 Km into a solution containing enzyme or enzyme equilibrated with inhibitor. Times required to achieve equilibration between enzyme and inhibitor were determined in control experiments. The reactions were performed under linear progress curve conditions and fluorescence increase measured at 405 Ex/510 Em nm. Values were converted to percent inhibition of the control reaction (after subtracting 100% Inhibition value). IC50 was determined by inflection point from a four parameter logistic curve fit. Ki was calculated using the Cheng Prusoff equation, Ki=IC50/(1+([S]/Km)). The activities shown by this assay indicate that the compounds of the invention may be therapeutically useful for treating or preventing various cardiovascular and/or cerebrovascular thromboembolic conditions in patients suffering from unstable angina, acute coronary syndrome, refractory angina, myocardial infarction, transient ischemic attacks, atrial fibrillation, stroke such as thrombotic stroke or embolic stroke, venous thrombosis, coronary and cerebral arterial thrombosis, cerebral and pulmonary embolism, atherosclerosis, deep vein thrombosis, disseminated intravascular coagulation, and reocclusion or restenosis of recanalized vessels.

T1 sequence (P03951 388-625 limits assumed): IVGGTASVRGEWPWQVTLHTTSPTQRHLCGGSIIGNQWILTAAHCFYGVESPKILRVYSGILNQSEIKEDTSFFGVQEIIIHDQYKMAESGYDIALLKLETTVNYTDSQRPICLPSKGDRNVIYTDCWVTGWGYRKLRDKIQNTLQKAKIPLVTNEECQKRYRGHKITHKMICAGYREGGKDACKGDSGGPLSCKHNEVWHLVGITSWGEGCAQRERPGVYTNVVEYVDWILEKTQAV
T1 sequence (P03951 19-387 partner limits assumed): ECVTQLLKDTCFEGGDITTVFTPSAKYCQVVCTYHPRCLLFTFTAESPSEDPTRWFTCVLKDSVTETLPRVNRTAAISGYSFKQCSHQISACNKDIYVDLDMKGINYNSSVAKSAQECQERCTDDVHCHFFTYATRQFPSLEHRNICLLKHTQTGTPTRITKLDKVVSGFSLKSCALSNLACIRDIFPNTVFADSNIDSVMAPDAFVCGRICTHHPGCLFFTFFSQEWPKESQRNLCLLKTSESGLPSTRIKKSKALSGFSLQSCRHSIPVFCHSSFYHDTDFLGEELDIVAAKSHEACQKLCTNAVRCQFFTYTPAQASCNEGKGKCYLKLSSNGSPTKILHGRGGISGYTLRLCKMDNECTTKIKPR

Take `COC(=O)Nc1ccc2c(c1)NC(=O)CCCC[C@@H](C(=O)N1CCC[C@@]3(C1)OC(=O)Nc1ccc(Cl)cc13)c1nc-2c(Cl)[nH]1` [Example 7a, methyl ((R,Z)-1^5-chloro-9-((R)-6-chloro-2-oxo-1,2-dihydrospiro[benzo[d][1,3]oxazine-4,3′-piperidine]-1′-carbonyl)-4-oxo-11H-3-aza-1(4,2)-imidazola-2(1,2)-benzenacyclononaphane-2^4-yl)carbamate]: the Ki in assay [1] was 0.42 nM; in assay [2], 0.39 nM.
As for `CCOC(=O)C1CCCCC(C(=O)N2CCC[C@@]3(C2)OC(=O)Nc2ccc(Cl)c(F)c23)c2nc(c[nH]2)-c2ccc(NC(=O)OC)cc2N1` (mixture of isomers) [Example 32, ethyl (Z)-9-((R)-6-chloro-5-fluoro-2-oxo-1,2-dihydrospiro[benzo[d][1,3]oxazine-4,3′-piperidine]-1′-carbonyl)-2^4-((methoxycarbonyl)amino)-1^1H-3-aza-1(4,2)-imidazola-2(1,2)-benzenacyclononaphane-4-carboxylate], the results for the Ki in assay [1] and in assay [2] were 4.94 nM and 15.5 nM, respectively.
On to `COC(=O)Nc1ccc2c(c1)NC(=O)CC/C=C\C[C@@H](C(=O)N1CCC[C@@]3(C1)OC(=O)Nc1ccc(Cl)c(F)c13)c1cc-2ccn1` [Example 22a, methyl ((R,Z)-10-((R)-6-chloro-5-fluoro-2-oxo-1,2-dihydrospiro[benzo[d][1,3]oxazine-4,3′-piperidine]-1′-carbonyl)-4-oxo-3-aza-1(4,2)-pyridina-2(1,2)-benzenacyclodecaphanen-2^4-yl)carbamate], for which the figures for the Ki in assay [1] and in assay [2] were 2.88 nM and 0.77 nM, respectively.
For `COC(=O)Nc1ccc2c(c1)NC(=O)[C@H](C)CCCC(C(=O)N1CC[C@@]3(C1)OC(=O)Nc1ccc(Cl)c(F)c13)c1nc-2c(Cl)[nH]1` (mixture of isomers) [Example 11] the same measures were 0.74 nM and 1.32 nM.
For `COC(=O)Nc1ccc2c(c1)NC(=O)CCCC[C@@H](C(=O)N1CC[C@@]3(C1)OC(=O)Nc1ccc(Cl)c(F)c13)c1nc-2c(C)[nH]1` [Example 13b, methyl ((R,Z)-9-((R)-6-chloro-5-fluoro-2-oxo-1,2-dihydrospiro[benzo[d][1,3]oxazine-4,3′-pyrrolidine]-1′-carbonyl)-1^5-methyl-4-oxo-1^1H-3-aza-1(4,2)-imidazola-2(1,2)-benzenacyclononaphane-2^4-yl)carbamate] the same measures were 0.6 nM and 1.11 nM.
Turning to `COC(=O)Nc1ccc2c(c1)NC(=O)CCCC[C@@H](C(=O)N1CC[C@@]3(C1)OC(=O)Nc1ccc(Cl)cc13)c1cc-2ccn1` [Example 17a, methyl ((R)-9-((R)-6-chloro-2-oxo-1,2-dihydrospiro[benzo[d][1,3]oxazine-4,3′-pyrrolidine]-1′-carbonyl)-4-oxo-3-aza-1(4,2)-pyridina-2(1,2)-benzenacyclononaphane-2^4-yl)carbamate], the results for the Ki in assay [1] and in assay [2] were 9.2 nM and 3.8 nM, respectively.
On the same counts, the results for `COC(=O)Nc1ccc2c(c1)NC(=O)CCCC[C@H](C(=O)N1CC[C@@]3(C1)OC(=O)Nc1ccc(Cl)cc13)c1nc-2c(Cl)[nH]1` (single isomer, unassigned) [Example 6b] are 16 nM and 32 nM.
As for `COC(=O)Nc1ccc2c(c1)NC(=O)CCCCC(C(=O)N1CC[C@@]3(C1)OC(=O)Nc1ccc(Cl)c(F)c13)c1nc-2c[nH]1` (mixture of isomers) [Example 4, methyl ((Z)-9-((R)-6-chloro-5-fluoro-2-oxo-1,2-dihydrospiro[benzo[d][1,3]oxazine-4,3′-pyrrolidine]-1′-carbonyl)-4-oxo-1^1H-3-aza-1(4,2)-imidazola-2(1,2)-benzenacyclononaphane-2^4-yl)carbamate], the values for the Ki in assay [1] and in assay [2] were 0.86 nM and 1.24 nM, respectively.

Source of the values: patent publication US10344039B2, “Macrocyclic spirocarbamate derivatives as factor XIa inhibitors, pharmaceutically acceptable compositions and their use” (MERCK SHARP & DOHME CORP., priority 2015, dated 2019).
